The test system of this assay is MCF7. Nature of the assay: Activity at estrogen receptor expressed in human MCF7 cells assessed as increase in receptor-mediated transcription by ERE-luciferase reporter gene assay relative to estradiol. The assay is classed as cell-based. Details: concentration or dose not given beside the values. A general note: A reporter such as luciferase makes a cellular process visible.

In the case of `COC(=O)C1=C(C(=O)OC)[C@@H]2O[C@H]1C(c1ccc(O)cc1)=C2c1ccc(O)cc1`, the Activity is 50%.

`Cn1c(N)nc2ncc(-c3ccccc3)cc21`: the Activity was under 50%.

For the molecule `Oc1ccc(-c2n[nH]c3c(O)cccc23)c(O)c1`, the Activity is under 50%.

Turning to `CCOC(=O)[C@@H]1[C@H](C(=O)OCC)[C@@H]2O[C@H]1C(c1ccc(O)cc1)=C2c1ccc(O)cc1`, the Activity came out at 10%.

As for `Oc1ccc(-c2c(-c3ccccc3)nn3c(C(F)(F)F)cc(C(F)(F)F)nc23)cc1`, the Activity was 10%.

(Values after ChEMBL document CHEMBL1212702.)
